Source: US8236845B2, “Heterocyclyl-substituted-tetrahydro-naphthalen-amine derivatives, their preparation and use as medicaments” (Laboratorios del Dr. Esteve, S.A., priority 2007, dated 2012)
Structures can show the parent of a compound that is named as a salt.

What follows are compounds tested against T1, Cloned Human Serotonin Receptor, Subtype 7 (h5HT7) (Homo sapiens, UniProt P34969) (assay: Radioligand binding assay, [125I]LSD, cloned human 5-HT7 receptor expressed in CHO cells). Settings: radioligand [125I]LSD 0.82 nM.
T1 construct: purchased PerkinElmer 6120512; host or cells: CHO cells (membranes coated on Basic FlashPlate, Cat. SMP200)
T1 sequence (P34969 whole entry): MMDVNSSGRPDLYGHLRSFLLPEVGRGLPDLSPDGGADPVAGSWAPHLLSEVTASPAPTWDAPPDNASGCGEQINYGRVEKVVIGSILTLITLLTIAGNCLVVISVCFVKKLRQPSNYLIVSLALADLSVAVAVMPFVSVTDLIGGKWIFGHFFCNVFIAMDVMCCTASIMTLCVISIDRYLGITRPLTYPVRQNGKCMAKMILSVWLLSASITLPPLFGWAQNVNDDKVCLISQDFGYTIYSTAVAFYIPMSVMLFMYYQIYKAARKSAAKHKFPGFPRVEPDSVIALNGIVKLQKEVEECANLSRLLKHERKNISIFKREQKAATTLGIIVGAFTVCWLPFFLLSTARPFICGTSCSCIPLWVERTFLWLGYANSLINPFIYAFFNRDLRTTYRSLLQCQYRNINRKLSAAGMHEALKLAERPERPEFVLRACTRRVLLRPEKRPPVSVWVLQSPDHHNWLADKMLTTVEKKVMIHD
Protocol: Radioligand binding assays were performed using the Cloned Human Serotonin Receptor, Subtype 7 (h5HT7), expressed in CHO cells, coated on Flashplate (Basic FlashPlate Cat.: SMP200) from PerkinElmer (Cat.: 6120512). The protocol assay was essentially the recommended protocol in the Technical Data Sheet by PerkinEmer Life and Analytical Sciences. The Mass membrane protein/well was typically 12 μg and the Receptor/well was about 9-10 fmoles. The Flashplate were let equilibrate at room temperature for one hour before the addition of the components of the assay mixture. The binding buffer was: 50 mM Tris-HCl, pH 7.4, containing 10 mM MgCl2, 0.5 mM EDTA and 0.5% BSA. The radioligand was [^125I]LSD at a final concentration of 0.82 nM. Nonspecific binding was determined with 50 μM of Clozapine. The assay volume was 25 μl. TopSeal-A were applied onto Flashplate microplates and they were incubated at room temperature for 240 minutes in darkness. The radioactivity were quantified by liquid scintillation spectrophotometry (Wallac 1450 Microbeta Trilux) with a count delay of 4 minutes prior to counting and a counting time of 30 seconds per well. Competition binding data were analyzed by using the LIGAND program (Munson and Rodbard, LIGAND: A versatile, computerized approach for characterization of ligand-binding systems. Anal. Biochem. 107: 220-239, 1980) and assays were performed in triplicate determinations for each point.
For `CCCN(C(C)C)[C@H]1CCc2c(cccc2-c2c(C)nn(C)c2C)C1` [AC, (2S)-Isopropyl-propyl-[5-(1,3,5-trimethyl-1H-pyrazol-4-yl)-1,2,3,4-tetrahydro-naphthalen-2-yl]-amine], the Ki was 227 ± 11.3 nM.
`COc1ccccc1-c1cccc2c1CCC(N(C)C)C2` (centres unmarked) [AF, [5-(2-Methoxy-phenyl)-1,2,3,4-tetrahydro-naphthalen-2-yl]-dimethyl-amine] was tested, and the Ki was 25.8 ± 4.6 nM.
With `COc1cccc(Cl)c1-c1cccc2c1CCC(N(C)C)C2` (centres unmarked) [AH, [5-(2-Chloro-6-methoxy-phenyl)-1,2,3,4-tetrahydro-naphthalen-2-yl]-dimethyl-amine] the Ki was 11.6 ± 3 nM.
`COc1ncccc1-c1cccc2c1CCC(N(C)C)C2` (centres unmarked) [AI, [5-(2-Methoxy-pyridin-3-yl)-1,2,3,4-tetrahydro-naphthalen-2-yl]-dimethyl-amine] showed a Ki of 61.6 ± 5.8 nM.
`Cc1nn(C)c(C)c1-c1cccc2c1CC[C@H](N(C)C(C)C)C2` [Example AB, (2S)-Isopropyl-methyl-[5-(1,3,5-trimethyl-1H-pyrazol-4-yl)-1,2,3,4-tetrahydro-naphthalen-2-yl]-amine] was tested, and the Ki was 644 ± 63.5 nM.
With `Cc1nn(C)c(C)c1-c1cccc2c1CC[C@@H](N(C)C)C2` [Example J, (2R)-Dimethyl-[5-(1,3,5-trimethyl-1H-pyrazol-4-yl)-1,2,3,4-tetrahydro-naphthalen-2-yl]-amine dihydrochloride] the IC50 was 178 nM.
For `Cc1n[nH]c(C)c1-c1cccc2c1CC[C@H](N(C)C)C2` [Example L, (2S)-[5-(3,5-Dimethyl-1H-pyrazol-4-yl)-1,2,3,4-tetrahydro-naphthalen-2-yl]-dimethyl-amine dihydrochloride], the IC50 was 18.4 ± 2.5 nM.
Compound `CCN(CC)C1CCc2c(cccc2-c2c(C)nn(C)c2C)C1` (centres unmarked) [Example S, Diethyl-[5-(1,3,5-trimethyl-1H-pyrazol-4-yl)-1,2,3,4-tetrahydro-naphthalen-2-yl]-amine] has a Ki of 130 nM.
`Cc1nn(C)c(C)c1-c1cccc2c1CCC(N1CCCC1)C2` (centres unmarked) [O, 1,3,5-Trimethyl-4-(6-pyrrolidin-1-yl-5,6,7,8-tetrahydro-naphthalen-1-yl)-1H-pyrazole] was tested, and the Ki was 96.3 ± 2 nM.
Compound `CCCN(C)C1CCc2c(cccc2-c2c(C)nn(C)c2C)C1` (centres unmarked) [R, Methyl-propyl-[5-(1,3,5-trimethyl-1H-pyrazol-4-yl)-1,2,3,4-tetrahydro-naphthalen-2-yl]-amine] has a Ki of 9.1 ± 1.5 nM.
`CCN(C)C1CCc2c(cccc2-c2c(C)nn(C)c2C)C1` (centres unmarked) [T, Ethyl-methyl-[5-(1,3,5-trimethyl-1H-pyrazol-4-yl)-1,2,3,4-tetrahydro-naphthalen-2-yl]-amine] was tested, and the Ki was 10.3 ± 0.4 nM.
